# Test results taken from publication PMC3666588 (Journal of medicinal chemistry, 2013).
# “Also recorded” adds a separate entry of the source. Read-outs that look alike come from different tables or passages of the source.
# Legend:
# ERα [1] = target: T1, ERα (Homo sapiens, UniProt P03372); assay: ERα trans-activation luciferase reporter assay in HeLa cells; details: for antagonism of E2-stimulated luciferase expression in HeLa cells: in presence of 1 nM E2; for ERα agonist activity in HeLa or MCF-7 cells: 100 nM derivative, pCR3.1-ERα + ERE-Elb-Luc
# T1 sequence (P03372 1-595): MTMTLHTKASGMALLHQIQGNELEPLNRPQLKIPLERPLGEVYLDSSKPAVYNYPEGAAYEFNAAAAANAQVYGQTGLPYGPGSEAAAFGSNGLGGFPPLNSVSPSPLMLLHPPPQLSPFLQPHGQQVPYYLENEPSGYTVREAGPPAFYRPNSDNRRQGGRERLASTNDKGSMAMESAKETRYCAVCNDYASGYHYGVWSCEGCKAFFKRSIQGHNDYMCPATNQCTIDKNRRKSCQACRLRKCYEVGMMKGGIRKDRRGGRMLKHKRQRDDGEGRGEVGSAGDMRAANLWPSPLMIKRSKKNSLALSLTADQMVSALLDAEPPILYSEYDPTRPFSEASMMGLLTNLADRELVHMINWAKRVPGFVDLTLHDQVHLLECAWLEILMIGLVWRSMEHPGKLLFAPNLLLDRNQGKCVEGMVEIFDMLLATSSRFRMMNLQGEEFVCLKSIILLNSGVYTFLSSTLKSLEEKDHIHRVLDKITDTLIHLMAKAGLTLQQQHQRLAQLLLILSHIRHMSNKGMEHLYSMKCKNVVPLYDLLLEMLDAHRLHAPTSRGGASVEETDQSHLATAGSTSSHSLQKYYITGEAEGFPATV
# MCF-7 cells = assay: In vitro cell proliferation assay; format: cell-based, human; details: 0-1000 nM, 6 days, 10% FBS, no additional estrogen
# ERα LBD and SRC-1 = target: T2, ERα LBD and SRC-1 (Homo sapiens, UniProt P03372); assay: Mammalian two-hybrid assay, ERα LBD - SRC-1 interaction in HeLa cells; format: cell-based; details: 100 nM ligand, GAL-SRC-1 + VP16-ERα-LBD
# T2 sequence (P03372 311-547 limits assumed): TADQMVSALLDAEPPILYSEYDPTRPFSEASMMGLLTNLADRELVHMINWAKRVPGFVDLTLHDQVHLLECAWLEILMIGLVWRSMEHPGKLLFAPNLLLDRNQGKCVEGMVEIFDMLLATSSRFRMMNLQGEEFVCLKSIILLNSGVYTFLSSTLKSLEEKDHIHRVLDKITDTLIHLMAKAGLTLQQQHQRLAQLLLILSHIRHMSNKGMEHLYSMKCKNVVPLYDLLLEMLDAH
# ERα [2] = target: T1, ERα; assay: ERα trans-activation luciferase reporter assay in MCF-7 cells; details: 100 nM derivative, compared with 1 nM E2; ERE-Elb-Luc reporter
# ERα [3] = target: T1, ERα; assay: ERα radioligand; format: binding; details: for ERα RBA: RBA = IC50 for E2 / IC50 for the test compound; for RBA for human ERs: text summary for human ERs (ERα and ERβ)
# MDA-MB-231 cells = assay: In vitro cell proliferation assay; format: cell-based, human; details: 0-1000 nM, 6 days
# recombinant human ERβ = recombinant human ERβ (Homo sapiens, UniProt Q92731); assay: ERβ radioligand; format: binding; details: RBA = IC50 for E2 / IC50 for the test compound
# [4] = system: ERα LBD and CBP CH3 domain; details: prior report ref 16; cited from earlier work
# ERα [5] = target: T1, ERα; assay: ERα trans-activation luciferase reporter assay in HepG2 cells
# recombinant human ERβ, sequence (Q92731 whole entry, the tested form may be a part): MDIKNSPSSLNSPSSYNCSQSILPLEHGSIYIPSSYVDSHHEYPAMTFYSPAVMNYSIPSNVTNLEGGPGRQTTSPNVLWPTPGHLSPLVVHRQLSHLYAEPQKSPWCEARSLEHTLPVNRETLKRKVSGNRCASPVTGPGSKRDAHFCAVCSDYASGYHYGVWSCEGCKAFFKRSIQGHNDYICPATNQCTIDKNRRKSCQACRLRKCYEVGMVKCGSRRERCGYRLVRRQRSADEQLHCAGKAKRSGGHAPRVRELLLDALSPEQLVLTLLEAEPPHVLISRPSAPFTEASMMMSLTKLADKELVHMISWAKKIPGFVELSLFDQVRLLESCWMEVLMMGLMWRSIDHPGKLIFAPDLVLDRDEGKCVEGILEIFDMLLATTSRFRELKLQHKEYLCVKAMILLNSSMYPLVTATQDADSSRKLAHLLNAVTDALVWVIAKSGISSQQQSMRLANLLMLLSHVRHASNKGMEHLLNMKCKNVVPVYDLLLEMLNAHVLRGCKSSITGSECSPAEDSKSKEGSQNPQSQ
Compound,antagonism of E2-stimulated luciferase expression in HeLa cells (ERα [1]),effect on growth of ER-positive MCF-7 cells (MCF-7 cells),promotion of ERα - SRC-1 coactivator interaction (ERα LBD and SRC-1),ERα agonist activity (transcription of target gene) in MCF-7 cells (ERα [2]),ERα RBA (ERα [3]),RBA for human ERs (ERα [3]),effect on growth of ER-negative MDA-MB-231 cells (MDA-MB-231 cells),ERβ RBA (recombinant human ERβ),promotion of ERα interaction with CBP coactivator [4],ERα agonist activity in HeLa or MCF-7 cells (ERα [1]),RBA for the human ERα (ERα [3]; stated in docking discussion),"agonist activity in HepG2 cells relative to E2 (ERα [5]; 100 nM derivative, normalized to 1 nM E2, pCR3.1-ERα + ERE-Elb-Luc)",agonist activity in HepG2 cells relative to E2 (ERα [5])
"C[C@]12CC[C@@H]3c4ccc(O)cc4C[C@@H](CCCCc4cn(-c5cc6ccc(O)cc6oc5=O)nn4)[C@H]3[C@@H]1CC[C@@H]2O [J7, 3-{4-[4-((7α,17β)-3,17-dihydroxyestra-1,3,5(10)-trien-7-yl)-butyl]-1,2,3-triazol-1-yl}-7-hydroxy-1-benzopyran-2-one]",strongest antagonists,concentration-dependent inhibition,did not induce significant SRC-1 binding,no agonist activity,–,–,–,–,–,–,–,–,–
"CC(C)(C)OC(=O)N1CCN(c2ccc(C#CCCCC[C@@H]3Cc4cc(O)ccc4[C@H]4CC[C@]5(C)[C@@H](O)CC[C@H]5[C@H]34)cc2)CC1 [J4, 4-{4-[6-((7α,17β)-3,17-dihydroxyestra-1,3,5(10)-trien-7-yl)-hex-1-ynyl]-phenyl}-piperazine-1-carboxylic acid tert-butyl ester]",less effective inhibitors,concentration-dependent inhibition,did not induce significant SRC-1 binding,very poor agonists,1.1%,approximately 1 % of E2,no appreciable effect; also recorded: did not show an appreciable effect,2.0%,–,–,–,–,–
"CCOC(=O)CC(=O)c1ccc(C#CCCCC[C@@H]2Cc3cc(O)ccc3[C@H]3CC[C@]4(C)[C@@H](O)CC[C@H]4[C@H]23)cc1 [J5, 3-{4-[6-((7α,17β)-3,17-dihydroxyestra-1,3,5(10)-trien-7-yl)-hex-1-ynyl]-phenyl}-3-oxo-propionic acid ethyl ester]",–,either no effect or a stimulatory effect; also recorded: did not show an appreciable effect,effectively promoted the interaction,–,6.2%,–,–,4.7%,–,–,–,–,–
"C[C@]12CC[C@@H]3c4ccc(O)cc4C[C@@H](CCCCCCCCC[S+]([O-])CCCC(F)(F)C(F)(F)F)[C@H]3[C@@H]1CC[C@@H]2O (stereo partly shown) [ICI-182,780, fulvestrant]",–,–,–,–,–,–,–,–,strongly promote ERα interaction with the CBP coactivator,–,–,–,–
"C[C@]12CC[C@@H]3c4ccc(O)cc4C[C@@H](CCCCC#Cc4ccc5ccccc5c4)[C@H]3[C@@H]1CC[C@@H]2O [J2, 3,17β-bis(hydroxy)-7α-(6-naphthalen-2-yl-hex-5-ynyl)-estra-1,3,5(10)-trien]",–,either no effect or a stimulatory effect; also recorded: did not show an appreciable effect,effectively promoted the interaction,–,3.4%,–,–,–,–,–,–,–,–
"C[C@]12CC[C@@H]3c4ccc(O)cc4C[C@@H](CCCCC#Cc4ccc(CN5CCCCC5)cc4)[C@H]3[C@@H]1CC[C@@H]2O [J6, 3,17β-bis(hydroxy)-7α-[6-(4-piperidin-1-ylmethyl-phenyl)-hex-5-ynyl]-estra-1,3,5(10)-trien]",–,either no effect or a stimulatory effect; also recorded: did not show an appreciable effect,effectively promoted the interaction,markedly weaker effect,0.9%,approximately 1 % of E2,–,–,–,–,–,–,–
"C[C@]12CC[C@@H]3c4ccc(O)cc4C[C@@H](CCCCc4cn(CC5COc6ccccc6O5)nn4)[C@H]3[C@@H]1CC[C@@H]2O (stereo partly drawn) [J9, 3,17β-bis(hydroxy)-7α-{4-[1-(2,3-Dihydro-1,4-benzodioxin-2-ylmethyl)-1H-1,2,3-triazol-4-yl]-butyl}-estra-1,3,5(10)-trien]",strongest antagonists,concentration-dependent inhibition,did not induce significant SRC-1 binding,no agonist activity,24.6%,> 20 % of E2,–,21.1%,–,poor agonists,24.6 % of E2,approximately 50 % of the agonist activity of E2,–
"CCOC(=O)C(Cc1ccc(C#CCCCC[C@@H]2Cc3cc(O)ccc3[C@H]3CC[C@]4(C)[C@@H](O)CC[C@H]4[C@H]23)cc1)C(=O)OCC [J8, 2-{4-[6-((7α,17β)-3,17-dihydroxyestra-1,3,5(10)-trien-7-yl)-hex-1-ynyl]-benzyl}-malonic acid diethyl ester]",–,either no effect or a stimulatory effect; also recorded: did not show an appreciable effect,effectively promoted the interaction,markedly weaker effect,4.7%,–,–,5.8%,–,–,–,–,–
"C[C@]12CC[C@@H]3c4ccc(O)cc4C[C@@H](CCCCC#Cc4ccc(-n5cccc5)cc4)[C@H]3[C@@H]1CC[C@@H]2O [J1, 3,17β-bis(hydroxy)-7α-[6-(4-pyrrol-1-yl-phenyl)-hex-5-ynyl]-estra-1,3,5(10)-trien]",–,either no effect or a stimulatory effect; also recorded: did not show an appreciable effect,effectively promoted the interaction,–,21.2%,> 20 % of E2,–,–,–,–,–,–,–
"C[C@]12CC[C@@H]3c4ccc(O)cc4C[C@@H](CCCCC#Cc4ccc(-c5ccno5)cc4)[C@H]3[C@@H]1CC[C@@H]2O [J3, 3,17β-bis(hydroxy)-7α-[6-(4-Isoxazol-5-yl-phenyl)-hex-5-ynyl]-estra-1,3,5(10)-trien]",less effective inhibitors,concentration-dependent inhibition,did not induce significant SRC-1 binding,very poor agonists,–,approximately 1 % of E2,no appreciable effect; also recorded: did not show an appreciable effect,–,–,poor agonists,–,–,approximately 50 % of the agonist activity of E2
